Literature values as cited in US20040151761A1, “Methods and compositions utilizing astaxanthin” (priority 2003, published 2004).

Columns and labels:
mouse splenocytes = details: cultured cell assay (Jyonouchi et al.); cited from earlier work
[1] = cited from earlier work
human neuroblastoma cell = details: cited from earlier work
IgG = details: dogs, 20 mg; cited from earlier work
[2] = test system: tumor necrosis factor (TNF); details: hamsters; cited from earlier work
[3] = test system: chemical-induced carcinogenesis; details: mice; cited from earlier work
lymphocyte = details: rats; cited from earlier work

SMILES: CC1=C(/C=C/C(C)=C/C=C/C(C)=C/C=C/C=C(C)/C=C/C=C(C)/C=C/C2=C(C)CCCC2(C)C)C(C)(C)CCC1 [beta-carotene]
- in vitro antibody response of mouse splenocytes to T-dependent antigens (mouse splenocytes): increase in vitro antibody response
- conversion of beta-carotene to vitamin A ([1]; cats (Schweigert et al. 2002)): not accompanied by conversion of beta-carotene to vitamin A
- absorption of beta-carotene ([1]; domestic cats (Chew et al. 2000)): readily absorb beta-carotene
- human neuroblastoma cell proliferation (human neuroblastoma cell): inhibit human neuroblastoma cell proliferation
- plasma IgG concentration versus un-supplemented animals (IgG): higher concentrations of plasma IgG than un-supplemented animals

SMILES: CC1=C(/C=C/C(C)=C/C=C/C(C)=C/C=C/C=C(C)/C=C/C=C(C)/C=C/C2=C(C)C(=O)CCC2(C)C)C(C)(C)CCC1=O [canthaxanthin]
- production of tumor necrosis factor (TNF) by macrophages [2]: enhances the production of tumor necrosis factor (TNF)
- chemical-induced carcinogenesis [3]: prevent chemical-induced carcinogenesis
- lymphocyte proliferation (lymphocyte): increases lymphocyte proliferation

SMILES: CC1=C[C@H](O)CC(C)(C)[C@H]1/C=C/C(C)=C/C=C/C(C)=C/C=C/C=C(C)/C=C/C=C(C)/C=C/C1=C(C)C[C@@H](O)CC1(C)C [lutein]
- plasma IgG concentration versus un-supplemented animals (IgG): higher concentrations of plasma IgG than un-supplemented animals
